≈ marks a conversion by molar mass, not a printed value.
The compounds below were run on M. tuberculosis H37Rv growth inhibition (assay: Mycobacterium tuberculosis H37Rv growth inhibition, putative kinase inhibitor library, confirmatory dose response (AID 2842);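 further: bacteria incubated one week before Alamar blue readout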).

SMILES	IC90 [µg/mL]
O=C(OCn1nnc2ccccc2c1=O)C(c1ccccc1)c1ccccc1	8.87 (≈ 23.9 µM)
O=C(Nc1nnc(-c2ccc(Cl)s2)o1)C1CCCCC1	6.45 (≈ 20.7 µM)
Cc1ccc2sc(N(CCCn3ccnc3)C(=O)c3ccc(F)cc3)nc2c1C	3.68 (≈ 9.01 µM)
O=C(COc1ccccc1)Nc1nnc(-c2ccc3c(c2)CCCC3)o1	6.48 (≈ 18.5 µM)
CCOC(=O)COc1ccc2cc(-c3ccc(OC)c(OC)c3)c(=O)oc2c1	2.18 (≈ 5.67 µM)
O=C(Nc1nnc(-c2cc(Cl)ccc2Cl)o1)c1ccc(Br)s1	2.65 (≈ 6.32 µM)
Cc1cc(NC(=O)/C=C/c2ccc([N+](=O)[O-])s2)no1	4.04 (≈ 14.5 µM)
Cc1cc(NC2CCCCC2)n2ncc(-c3ccccc3)c2n1	10.6 (≈ 34.5 µM)
O=C(CSc1ncnc2c1nnn2Cc1ccc(F)cc1)N1CCOCC1	19.8 (≈ 50.9 µM)
COc1cccc2sc(Nc3nc4ccccc4s3)nc12	3.41 (≈ 10.9 µM)
COc1ccccc1Cn1cc2c(-c3ccc(C)cc3)nnc-2c2cc(C)ccc21	3.48 (≈ 8.84 µM)
COc1cccc(-c2csc(NC(=O)c3ccc4c(c3)OCCO4)n2)c1	14.3 (≈ 39 µM)
COc1ccc(Nc2c3c4c(cccc4[nH]c2=O)C(=O)c2ccccc2-3)cc1	12.4 (≈ 33.7 µM)
NNC(=O)c1ccc(-c2ccccc2Cl)o1	3.96 (≈ 16.7 µM)
CSc1cccc(-c2nnc(NC(=O)c3cc([N+](=O)[O-])ccc3Cl)o2)c1	0.88 (≈ 2.25 µM)
CCS(=O)(=O)c1cccc(C(=O)Nc2nnc(-c3cc(C)ccc3C)o2)c1	9.12 (≈ 23.7 µM)
CCN1CCc2c(sc(NC(=O)c3ccc([N+](=O)[O-])o3)c2C(N)=O)C1	6.91 (≈ 19 µM)
COc1ccc(-c2nsc(SCC(=O)Nc3ccc(C(C)=O)cc3)n2)cc1	25.9 (≈ 64.9 µM)
COc1cccc(C(=O)Nc2nnc(-c3ccc(Cl)cc3)o2)c1	< 0.2
COc1ccc(-c2noc(-c3cc(C(C)C)[nH]n3)n2)cc1	12.2 (≈ 42.8 µM)
Cc1nc2c(ccc3nc(NC(=O)Cc4ccccc4)sc32)s1	2.92 (≈ 8.6 µM)
COc1ccc(C(=O)Nc2nnc(-c3ccc(C)cc3C)o2)cc1	23.6 (≈ 72.9 µM)
Cc1ccc(C)c(-c2nnc(NC(=O)COc3ccccc3)o2)c1	2.24 (≈ 6.93 µM)
Fc1ccc(N2CCN(c3nc(Nc4ccccc4)c4nccnc4n3)CC2)cc1	1.69 (≈ 4.21 µM)

SMILES	IC90 [µg/mL]
Cn1c(=O)c2c(nc(SCC(=O)c3ccccc3)n2Cc2ccc(F)cc2)n(C)c1=O	31.8 (≈ 72.4 µM)
Cc1cc(C)c2nc(NNC(=O)c3nc4ccccc4s3)sc2c1	4.23 (≈ 11.9 µM)
COc1ccc(-c2nnc3c4ccccc4n(Cc4cccc(C)c4)cc2-3)cc1	13.4 (≈ 35.3 µM)
CCCCOc1ccc(C(=O)Nc2nnc(-c3ccccn3)o2)cc1	11.6 (≈ 34.3 µM)
Cc1ccc(NC(=O)CC2Nc3cccc4cccc(c34)NC2=O)cc1 (stereo unspecified)	61.8 (≈ 179 µM)
Cc1ccc(N2C(=O)C(Cl)=C(Nc3cc(Cl)ccc3O)C2=O)cc1	25.4 (≈ 69.8 µM)
O=C(OCn1nnc2ccccc2c1=O)c1cccs1	4.31 (≈ 15 µM)
O=C(CN1CCOCC1)Nc1ncc(Cc2cc(Cl)cc(Cl)c2)s1	14.9 (≈ 38.5 µM)
Cc1ccc2c(c1)=C(c1sc(=O)[nH]c1O)C(=O)N=2	22.8 (≈ 87.7 µM)
O=C(Nc1nnc(-c2ccc(Cl)cc2)o1)C1CCCCC1	5.6 (≈ 18.3 µM)
Cc1cc(C)c2sc(NNC(=O)c3ccc(S(=O)(=O)N4CCCCC4)cc3)nc2c1	29.4 (≈ 66 µM)
O=C(Nc1cccc(C(F)(F)F)c1)NC1CC(=O)N(c2ccc(F)cc2)C1 (stereo unspecified)	13.2 (≈ 34.6 µM)
CCS(=O)(=O)c1ccc(C(=O)Nc2nnc(-c3ccc(Br)cc3)o2)cc1	24.6 (≈ 56.4 µM)
CCOC(=O)N1CCc2c(sc(NC(=O)c3ccc(F)cc3)c2C(N)=O)C1	1.89 (≈ 4.83 µM)
O=C(Nc1nnc(-c2ccc(Cl)s2)o1)C1CC1	26.8 (≈ 99.3 µM)
Cc1ccc(-c2nnc(NC(=O)C(C)C)o2)c(C)c1	8.43 (≈ 32.5 µM)
O=C(Nc1nnc(-c2ccc3c(c2)CCCC3)o1)c1ccco1	0.87 (≈ 2.81 µM)
COC(=O)CSCC(=O)Nc1nnc(-c2cccc(C)c2)s1	23.9 (≈ 70.8 µM)
CCOC(=O)Cn1c(=NC(=O)c2ccc([N+](=O)[O-])s2)sc2cc(S(C)(=O)=O)ccc21	21.8 (≈ 46.5 µM)
Cc1ccc(CC(=O)Nc2nnc(-c3ccco3)o2)c(C)c1	17.9 (≈ 60 µM)
COc1cc2c3nnc(-c4ccc(F)cc4)c-3cn(Cc3ccccc3)c2cc1OC	12 (≈ 29 µM)
COc1ccc(Nc2nc(N3CCN(Cc4ccccc4)CC3)nc3nccnc23)cc1	4.69 (≈ 11 µM)
COc1ccc(-c2nsc(SCC(=O)NCc3ccco3)n2)cc1	< 0.2
Cc1ccc(CC(=O)N(CCCn2ccnc2)c2nc3ccccc3s2)c(C)c1	4.82 (≈ 11.9 µM)

SMILES	IC90 [µg/mL]
CCCCC(=O)Nc1nnc(-c2cc(Cl)ccc2Cl)o1	32.4 (≈ 103 µM)
Cc1cc(NCCCn2ccnc2)n2ncc(-c3ccccc3)c2n1	3.12 (≈ 9.39 µM)
O=C(/C=C/c1cccs1)Nc1nnc(-c2ccco2)o1	5.99 (≈ 20.8 µM)
O=C(Nc1nnc(-c2cc(Cl)ccc2Cl)o1)c1ccco1	27.5 (≈ 84.8 µM)
O=C(OCc1ccco1)c1cc2cc(Br)ccc2oc1=O	16.3 (≈ 46.7 µM)
CCOc1ccc(-c2nnc3c4cc5c(cc4n(Cc4cccc(OC)c4)cc2-3)OCCO5)cc1	3.52 (≈ 7.53 µM)
O=C(Nc1nnc(-c2cc(Cl)ccc2Cl)o1)c1ccccc1Cl	1.66 (≈ 4.5 µM)
CCOC(=O)c1ccc(NC(=O)CSc2ccc(F)cc2)cc1	5.47 (≈ 16.4 µM)
COc1cccc2sc(Nc3nc4c(s3)CCCC4)nc12	5.82 (≈ 18.3 µM)
N#C/C(=C\c1c(Oc2ccccc2F)nc2ccccn2c1=O)C(N)=O	11.4 (≈ 32.5 µM)
Cc1ccccc1C1C=C(c2cccs2)Nc2nc3ccccc3n21 (stereo unspecified)	13.8 (≈ 40 µM)
O=C(Cc1cccc2ccccc12)Nc1nc(-c2ccc(Br)s2)cs1	15.7 (≈ 36.5 µM)
COc1cc(C(=O)Nc2nnc(-c3ccc4c(c3)CCCC4)o2)cc(OC)c1OC	44.2 (≈ 108 µM)
O=C(Nc1nnc(-c2ccc3c(c2)CCCC3)o1)C1CCCCC1	40.2 (≈ 124 µM)
CCCCN1C(=O)c2cccc3c(NC(=O)c4ccc([N+](=O)[O-])s4)ccc1c23	22.7 (≈ 57.3 µM)
C=CCOC(=O)COc1ccc2c(C)c(-c3ccccc3)c(=O)oc2c1	0.85 (≈ 2.43 µM)
O=C(Nc1nnc(-c2cc(Cl)ccc2Cl)o1)C1=COCCO1	25.7 (≈ 75.2 µM)
CSc1ccc2nc(Nc3nc4ccc(NC(C)=O)cc4s3)sc2c1	< 0.2
Cc1ccc(C(=O)Nc2nnc(-c3ccc(C)cc3C)o2)c(C)c1	3.99 (≈ 12.4 µM)
CCN1CCc2c(sc(NC(=O)c3sc4ccccc4c3Cl)c2C(N)=O)C1	10.6 (≈ 25.2 µM)
COc1cccc(C(=O)Nc2nc(-c3cccs3)cs2)c1	19.5 (≈ 61.5 µM)
O=C(Nc1nnc(-c2ccccc2)o1)c1ccco1	2.78 (≈ 10.9 µM)
O=C(Nc1nnc(-c2ccc3c(c2)CCCC3)o1)c1cc(Cl)sc1Cl	3.53 (≈ 8.95 µM)
COc1ccc(-c2ccc(C3C(C#N)=C(N)Oc4n[nH]c(C)c43)o2)cc1 (stereo unspecified)	4.92 (≈ 14.1 µM)

SMILES	IC90 [µg/mL]
COc1cccc2sc(N(CCCn3ccnc3)C(=O)c3cccs3)nc12	5.7 (≈ 14.3 µM)
O=C(Nc1nnc(-c2cccs2)o1)c1ccco1	3.41 (≈ 13.1 µM)
COc1ccc(C(=O)Nc2nnc(C3=COCCO3)o2)cc1	3.3 (≈ 10.9 µM)
Cc1n[nH]c(=O)nc1N/N=C/c1cccc(OCc2ccccc2Cl)c1	35.9 (≈ 97.2 µM)
CCC(=O)Nc1nnc(-c2cccs2)o1	17.1 (≈ 76.8 µM)
O=C(Nc1nnc(-c2ccc(Cl)cc2)o1)c1ccccc1F	0.72 (≈ 2.27 µM)
COc1ccc(OC)c2sc(N(CCCn3ccnc3)C(=O)c3ccc(F)cc3)nc12	13.5 (≈ 30.6 µM)
CCN(CC)S(=O)(=O)c1ccc(C(=O)Nc2nnc(-c3cc(C)ccc3C)o2)cc1	13.1 (≈ 30.5 µM)
CCc1ccc(-c2nnc3c4cc5c(cc4n(Cc4ccc(C)cc4)cc2-3)OCCO5)cc1	15.3 (≈ 35 µM)
CCOc1cccc2sc(NC(=O)c3ccc(Cl)cc3Cl)nc12	11.6 (≈ 31.5 µM)
CCOc1cccc2sc(Nc3nc4ccc(OC)cc4s3)nc12	3.19 (≈ 8.92 µM)
O=C1N/C(=N/N=C/c2ccccc2O)SC1Cc1ccc(Cl)cc1Cl (stereo unspecified)	1.32 (≈ 3.35 µM)
Cc1ccc(C)c(-c2nnc(NC(=O)c3ccc(S(=O)(=O)N4CCc5ccccc54)cc3)o2)c1	12.4 (≈ 26.1 µM)
Cc1ccc(C)c(-c2nnc(NC(=O)c3ccc(C#N)cc3)o2)c1	23.1 (≈ 72.5 µM)
COc1ccc(-c2noc(-c3cc4ccccc4oc3=Nc3ccc(Br)cc3)n2)cc1	13.3 (≈ 28.1 µM)
Cc1cc(C)c2sc(NNC(=O)c3cc(-c4cccs4)nc4ccccc34)nc2c1	25.6 (≈ 59.5 µM)
COC(=O)CSCC(=O)Nc1nnc(-c2ccccc2C)s1	13.7 (≈ 40.7 µM)
COc1cccc2sc(Nc3nc(-c4ccc(Cl)s4)cs3)nc12	7.28 (≈ 19.2 µM)
O=C(Nc1nnc(-c2cc(Cl)ccc2Cl)o1)c1ccc(S(=O)(=O)N2CCCCC2)cc1	11.7 (≈ 24.3 µM)
Cc1ccc2nc(NNC(=O)c3cc4ccccc4oc3=O)sc2c1	1.75 (≈ 4.98 µM)
CCCCCOc1ccc(C(=O)Nc2nnc(-c3ccco3)o2)cc1	8.78 (≈ 25.7 µM)
CCOc1ccc(NC(=O)c2c(Cl)ccc(Cl)c2Cl)cc1	11.7 (≈ 34 µM)
Cc1ccc(-n2ncc3c(NNC(=O)c4ccc(Cl)cc4Cl)ncnc32)cc1	11.9 (≈ 28.7 µM)
O=C1Nc2ccccc2/C1=C/C(=O)c1ccc([N+](=O)[O-])cc1	47.7 (≈ 162 µM)

SMILES	IC90 [µg/mL]
Fc1ccc2nc(Nc3nc(-c4ccc(Cl)s4)cs3)sc2c1	7.87 (≈ 21.4 µM)
COc1cccc(Cn2cc3c(-c4ccc(Cl)cc4)nnc-3c3cc(OC)c(OC)cc32)c1	15.2 (≈ 33.1 µM)
CCOC(=O)c1ccc2nc(Nc3nc4ccc(OC)cc4s3)sc2c1	29 (≈ 75.3 µM)
Cc1c(Cl)ccc2sc(N(CCCn3ccnc3)C(=O)c3ccco3)nc12	0.23 (≈ 0.574 µM)
CCc1ccc(-c2ccc(SCC(N)=O)nn2)cc1	4.66 (≈ 17 µM)
COc1ccc2nc(Nc3nc4c(s3)CCCC4)sc2c1	20.7 (≈ 65.1 µM)
O=C(Nc1nnc(-c2cc(Cl)ccc2Cl)o1)c1cccs1	0.76 (≈ 2.23 µM)
O=C(Nc1nnc(-c2ccc(Br)cc2)o1)c1cc(Cl)ccc1Cl	2.67 (≈ 6.46 µM)
O=C(CCOc1ccccc1)Nc1nnc(-c2ccc(Cl)s2)o1	13.9 (≈ 39.7 µM)
COc1ccc2c(c1)c1nnc(-c3ccc(C)cc3)c-1cn2Cc1ccccc1OC	4.23 (≈ 10.3 µM)
N#C/C(=C\c1ccc([N+](=O)[O-])cc1)c1nc2ccccc2[nH]1	6.12 (≈ 21.1 µM)
COc1cc2c3nnc(-c4ccc(C)cc4)c-3cn(Cc3ccc(Cl)cc3)c2cc1OC	4.8 (≈ 10.8 µM)
COC(=O)c1c(NC(=O)Cc2cccc3ccccc23)sc2c1CC(C)(C)NC2(C)C	3.73 (≈ 8.54 µM)
Cc1ccc(-c2nnc(NC(=O)c3ccc(S(=O)(=O)N4CCC(C)CC4)cc3)o2)c(C)c1	46.7 (≈ 103 µM)
COc1ccc(CC2S/C(=N/N=C/c3ccccc3O)NC2=O)cc1 (stereo unspecified)	< 0.2
COc1ccc(-c2nnc(SCC(=O)Nc3cc(C)on3)o2)cc1	6.72 (≈ 19.4 µM)
CC(C)C(=O)Nc1nnc(-c2cc(Cl)ccc2Cl)o1	26.9 (≈ 89.5 µM)
NC(=O)c1c(NC(=O)/C=C/c2ccc([N+](=O)[O-])s2)sc2c1CCCC2	4.6 (≈ 12.2 µM)
Cc1cccc(C(=O)Nc2nnc(-c3ccc(C)cc3C)o2)c1	9.06 (≈ 29.5 µM)
Cc1ccc(-c2nnc(NC(=O)C3CC3)o2)c(C)c1	1.47 (≈ 5.71 µM)

Reference: PubChem BioAssay AID2842 (Southern Research Institute, 2010)
